Experimental data reported in PubChem BioAssay AID179 (DTP/NCI, 2004).
Activity calls are given as the source filed them.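 How the source made its calls: active means compounds giving half or more protection of infected cells from virus-caused growth loss, again on retest; inactive means the rest.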

Test system: CEM cells HIV-1 protection, formazan growth assay
Assay: NCI AIDS Antiviral Assay
Details: for IC50: measured here: growth of uninfected CEM cells
Outline: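 CEM (human) cells, HIV-1 infected vs uninfected, 5-point dosing, formazan growth read-out. Retest threshold 50% protection.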

| Structure (SMILES) | EC50 [µM] | IC50 [µM] | outcome |
| --- | --- | --- | --- |
| O=C(/C=C/c1ccc(O)cc1)c1cc(O)cc(O)c1 | > 200 | 20.9 | – |
| O=c1c2ccccc2nc2n1-c1ccccc1SC2 | > 97.7 | > 97.7 | – |
| COc1ccc(-c2sc(/N=C/c3cc(OC)c(OC)c(OC)c3)c(C#N)c2C)cc1OC | > 200 | 11.2 | – |
| CC[C@](C)(O)C(=O)O[C@H]1C(=O)O[C@@H]2C[C@H]3C(C)=CC(=O)[C@@H](O)[C@]3(C)[C@H]3[C@@]4(O)OC[C@]32[C@@H]1[C@@H](C)[C@H]4O | – | – | inactive |
| CN(C)C1C(=O)C(C(N)=O)=C(O)C2(O)C(=O)C3=C(O)c4c(O)cccc4C(C)(O)C3CC12.[Cl][Sb]([Cl])[Cl] (centres undefined) | > 200 | 35.5 | – |
| CCN(CC)CCSc1c(C(C)=O)c(=O)n(-c2ccccc2)c(=S)n1-c1ccccc1 | > 200 | 1.15 | – |
| O=c1ncc2ccc([N+](=O)[O-])cc2[nH]1 | > 186 | 148 | – |
| C/C=C/C=N/N(C(=O)c1cc([N+](=O)[O-])cc([N+](=O)[O-])c1)C1=NC(c2ccccc2)C(c2ccccc2)=NN1 (centres undefined) | > 36.3 | > 36.3 | – |
| CC1(C)CC(=O)C2=C(C1)Nc1ccc(Cl)cc1NC2c1cccc([N+](=O)[O-])c1 (centres undefined) | > 200 | 102 | – |
| O=[N+]([O-])c1cc2c(cc1O)[nH]c1cccc([N+](=O)[O-])c12 | > 13.8 | > 13.8 | – |
| COc1cccc(/C=C2\N=C(Cl)OC2=O)c1O | > 20.4 | > 20.4 | – |
| CC(=O)O[C@@H]1CCN(Cc2ccccc2)C[C@@H]1CN(C(C)=O)C12CC3CC(CC(C3)C1)C2 | > 8.51 | 8.32 | – |
| CC(C)(C)[Si](C)(C)OCC1OC(n2ccc(=O)[nH]c2=O)C(O[Si](C)(C)C(C)(C)C)/C1=C/C(N)=N\O (centres undefined) | > 200 | 9.12 | – |
| CC(C)CCCC(C)C1CCC2C3CC[C@H]4C[C@@H](NC(=O)C=C(c5cc(Cl)c(O)c(C(=O)O)c5)c5cc(Cl)c(O)c(C(=O)O)c5)CC[C@]4(C)C3CC[C@]12C (some centres undefined) | 56.2 | 97.7 | – |
| CCN(CCO)CC1COc2ccccc2O1 (centres undefined) | > 200 | > 200 | – |
| Cc1ccc(/C=C(\C#N)C(=O)c2ccccc2)cc1 | > 145 | 102 | – |
| CCC(C)C(NC(=O)c1ccccc1SC(=O)CCCC[n+]1ccccc1)C(=O)O (centres undefined) | 23.4 | > 200 | – |
| O=C(O)CSc1nnc(COc2ccccc2)n1-c1ccccc1 | > 741 | 407 | – |
| O=c1/c(=C\c2ccc(Cl)c(Cl)c2)sc2n1CCN=2 | > 200 | > 200 | – |
| CCC1(OC(C)=O)C(=O)OCc2c1cc1n(c2=O)Cc2cc3ccccc3nc2-1 (centres undefined) | > 10 | 0.129 | – |
| CC(=O)N(CC(=O)Nc1ccc(S(N)(=O)=O)cc1)C(C)C | > 200 | > 200 | – |

| Structure (SMILES) | EC50 [µM] | IC50 [µM] | outcome |
| --- | --- | --- | --- |
| CCCCCCCCCCCCCCCC/C(C(=O)OC)=C(/O)C(=O)OCC | > 8.51 | > 8.51 | – |
| COC(=O)c1c(C)cccc1CC1Cc2c(C)cccc2C1=O (centres undefined) | > 200 | 41.7 | – |
| CCOC(=O)C1=c2[nH]c3cccc4cccc(c43)n2C(=O)CC1 | > 200 | 12.3 | – |
| CCOC(=O)/C(O)=C/c1nc2ccccc2nc1C | > 46.8 | > 46.8 | – |
| CC(Oc1ccc(OCC2CCCCC2)cc1)C(=O)N(CCO)CCO (centres undefined) | > 692 | 44.7 | – |
| CN(C)CCc1c2c(nc3ccccc13)C(=O)c1cccnc1C2=O | – | – | inactive |
| O=C1OC(c2ccccc2)(c2ccccc2)CC1CN1CCOCC1 (centres undefined) | > 57.5 | 12 | – |
| CSc1c(C#N)c2n(c3ccccc3[n+]2C)c2ncccc12 | > 200 | 3.31 | – |
| CN1S(=O)(=O)N(C)P12(N=P(CP(=NP13(N(C)S(=O)(=O)N1C)N(C)S(=O)(=O)N3C)(c1ccccc1)c1ccccc1)(c1ccccc1)c1ccccc1)N(C)S(=O)(=O)N2C | > 70.8 | > 70.8 | – |
| c1ccc2c(c1)N=c1ccccc1=P21c2ccccc2Nc2ccccc21 | > 2 | 0.214 | – |
| NC(=O)c1[nH]nc(C2OC(CO)C(O)C2O)c1O (centres undefined) | > 955 | 0.309 | – |
| CCc1nc2ccc(N=NN(C)C)cc2[nH]1 | 85.1 | 107 | – |
| N#Cc1c(-c2ccccc2)cc(-c2ccccc2)[nH]c1=O | > 36.3 | > 36.3 | – |
| COC(=O)C(CCCCCCCC(C(=O)OC)c1nc2n(c1O)C(=N)N=N2)c1nc2n(c1O)C(=N)N=N2 (centres undefined) | > 7.41 | > 7.41 | – |
| COc1ccccc1NC(=O)/C(=C\N1C(=O)/C(=C/c2cc(OC)c(OC)c(OC)c2)SC1=S)C(C)=O | > 100 | 12.9 | – |
| N#Cc1nc(-c2ccccc2O)oc1N | > 200 | > 100 | – |
| O=c1cc(-c2ccccc2)c2cc3c(=O)ccoc3cc2o1 | > 3.47 | > 3.47 | – |
| C[C@]12C[C@H](c3ccccc3)Nc3ccccc3N1C(c1ccccc1)=NO2 | > 200 | 36.3 | – |
| Nc1ncnc2c1ncn2[C@H]1CC(CO)CO1 (some centres undefined) | > 661 | > 661 | – |
| N#CC1(C#N)C(c2ccccc2)C=CC12OCCCO2 (centres undefined) | – | – | inactive |
| NC(=O)C(=O)N/N=C(\CC1(O)C(=O)Nc2ccccc21)c1ccc2ccccc2c1 (centres undefined) | > 33.9 | > 33.9 | – |

| Structure (SMILES) | EC50 [µM] | IC50 [µM] | outcome |
| --- | --- | --- | --- |
| C[C@H]1[C@H]2CC[C@H]3[C@@H]4CC(=O)[C@]56C[C@@H]5CC[C@]6(C)[C@H]4CC[C@]23CN1C | > 91.2 | > 91.2 | – |
| C=C1CCC[C@@H]2[C@@](C)(CC3=CC(=O)C=CC3=O)C(C)CC[C@]12C (some centres undefined) | > 60.3 | 0.427 | – |
| COc1ccccc1N1CCN(Cn2c(=O)oc3cccnc32)CC1 | > 200 | 60.3 | – |
| CC1CCCCC12NC(=O)NC2=O (centres undefined) | > 200 | > 200 | – |
| CCOC(=O)C1=C(C)NC(c2ccco2)=C(C#N)C1c1cccc([N+](=O)[O-])c1 (centres undefined) | > 0.2 | 0.0832 | – |
| O=C(/C=C/c1c(O)ccc2ccccc12)c1ccc2ccccc2c1 | > 112 | > 112 | – |
| COC(=O)N/N=C(/Cc1occc(=O)c1O)C(=O)Nc1ccc([N+](=O)[O-])cc1[N+](=O)[O-] | > 575 | > 575 | – |
| CNC(=S)/N=C(\N)N(C)C | – | – | inactive |
| CC(=O)Nc1cc2ccc(C)nc2c2nc(C)ccc12.CC(=O)Nc1cc2ccc(C)nc2c2nc(C)ccc12.O=C1OC(C(O)C[O-])C(O)=C1O.[Cu+] | > 12.6 | 2.09 | – |
| OCC1OC(c2scc3c(=S)nc[nH]c23)C(O)C1O (centres undefined) | > 200 | 12.6 | – |
| Cc1ccc(NC(=O)CSc2nnc(Cc3ccccc3)o2)c(C)c1 | > 141 | 135 | – |
| O=C1CCC2CCC(=O)N12 | > 1780 | > 1780 | – |
| CC(C)C(=O)N1Cc2cc(Cl)cc(Cl)c2OC(=O)c2ccccc21 | > 29.5 | 3.02 | – |
| O=C1c2ccccc2N2OC3(N4CCCC4)CCCCC3C12c1ccccc1 (centres undefined) | > 10 | > 10 | – |
| Clc1ccc(N=Nc2nc3ccccc3nc2N=Nc2ccc(Cl)cc2Cl)c(Cl)c1 | > 0.794 | > 0.794 | – |
| O=[N+]([O-])c1ccc(Cl)cc1N/N=C/c1cccc2cccnc12 | > 200 | > 200 | – |
| O=S(=O)(O)c1ccc(N/N=C/c2ccccc2)cc1 | > 832 | 794 | – |
| CCOC(=O)Cc1cnc(NC(NC(=O)CC)(C(F)(F)F)C(F)(F)F)s1 | > 200 | > 200 | – |
| CCCCOC(=O)C(=O)C(CC(CC)C(=O)c1ccccc1)C(=O)C=C(C)C (centres undefined) | > 646 | > 646 | – |
| CC1=CC(=O)Nc2ccccc2S1 | > 234 | 85.1 | – |
| Cn1c2ccccc2c(=Nc2ccc(S(N)(=O)=O)cc2)c2ccccc21 | – | – | inactive |

| Structure (SMILES) | EC50 [µM] | IC50 [µM] | outcome |
| --- | --- | --- | --- |
| C1=CC2C=CC(C=C1)[PH+]2c1ccccc1.C1=CC2C=CC(C=C1)[PH+]2c1ccccc1.[C-]#[O+].[C-]#[O+].[C-]#[O+].[Fe] (centres undefined) | > 17.8 | > 17.8 | – |
| CCOC(=O)C(C)c1nc2cc(F)c(F)cc2[nH]c1=O (centres undefined) | > 200 | > 200 | – |
| COc1ccc(NC(=O)c2oc3cc(O)ccc3c(=O)c2C)c([N+](=O)[O-])c1 | > 676 | 245 | – |
| COC(=O)C(=O)C(C(=O)C(=O)Nc1ccc(C)cc1)c1nc2ccc(C(=O)c3ccccc3)cc2[nH]c1=O (centres undefined) | > 26.3 | > 26.3 | – |
| COC(=O)c1cc(NC2OCC(OC(C)=O)C(OC(C)=O)C2OC(C)=O)nc(SC)c1C(=O)OC (centres undefined) | > 200 | > 200 | – |
| CC(=O)Oc1cc2c(cc1OCC(F)(F)F)[C@H]1CC[C@]3(C)[C@@H](OC(C)=O)CC[C@H]3[C@@H]1CC2=O | > 200 | 22.4 | – |
| CNCS(=O)(=O)O | > 200 | 97.7 | – |
| O=C(O)c1nc2ccc(C(F)(F)F)cc2[nH]c1=O | > 200 | > 200 | – |
| Cc1ccc(S(=O)(=O)OCCC2CN(C(=O)OCc3ccccc3)C(C)(C)O2)cc1 (centres undefined) | > 200 | 14.1 | – |
| COC(=O)/C=C/C(=O)C1C(C(=O)OC)C2(C(=O)OC)CCC1(C(=O)OC)N2 (centres undefined) | – | – | inactive |
| Cc1cc2c(cc1C)[n+](=O)c(C(=O)CC(=O)C(=O)Nc1c(C(C)C)cccc1C(C)C)c(C)n2[O-] | > 7.94 | > 7.94 | – |
| CN(C)C(=NC#N)N(Cc1ccccc1)Cc1ccccc1 | > 200 | 112 | – |
| O=C(O)c1ccccc1C(c1cc(Br)c(O)c(Br)c1)c1cc(Br)c(O)c(Br)c1 | – | – | inactive |
| c1ccc2c(c1)c1c(n2CCOCCN2CCCC2)CCCC1 | > 200 | 9.55 | – |
| CCCc1cc(=O)oc2c3c(c4c(c12)OC(C)(C)[C@@H](O)[C@H]4O)O[C@@H](C)[C@H](C)[C@@H]3O | > 200 | 135 | – |
| O=[N+]([O-])c1ccccc1S(=O)NCc1c(Cl)cccc1Cl (centres undefined) | > 200 | > 200 | – |
| CC(C)(C)OC(=O)CC(NC(=O)OC(C)(C)C)C(=O)NC(C(=O)O)C(O)c1ccccc1 (centres undefined) | > 200 | 93.3 | – |
| O=C(O)c1ccc(Nc2nc3nn(Cc4ccccc4)cc3c(=O)s2)cc1 | > 195 | > 195 | – |
| Cc1ccc([N+](=O)[O-])cc1NC(=O)Nc1onc(C)c1C | > 200 | 9.77 | – |
| CCn1c2c(c3ccccc31)[C@@H](c1ccc(Cl)cc1)CC1C(=O)N(c3ccccc3)C(=O)C21 (some centres undefined) | > 11.5 | > 11.5 | – |
